EP2611847B1, “AMPHIPHILE FOR SOLUBILIZATION OF WATER-SOLUBLE ACTIVE INGREDIENTS” (BASF SE, priority 2010, dated 2012)
Values after ≈ are worked out from the molar mass of the structure shown. Like-named read-outs stand apart in the source and are kept apart here.

Test: physchem
Format: physicochemical
Details: for solubility thermodynamic at 24 h: thermodynamic from solid
Method: In einem 50 mL Becherglas wurden 100 mg Polymer eingewogen und in 9,900 g dest. Wasser gelöst. Anschließend wurde dem Ansatz jeweils 100 mg Wirkstoff zugewogen, um eine übersättigte Lösung zu erhalten. Das Gemisch wurde nun 24 h bei Raumtemperatur mit Hilfe eines Magnetrührers gerührt. Nach einstündiger Ruhezeit wurde überschüssiger (d.h. nicht solubilisierter) Wirkstoff durch Zentrifugieren abgetrennt. Die so erhaltene, klare bzw. opake Lösung wurde anschließend auf ihren Wirkstoffgehalt mittels UV-Spektroskopie untersucht. Die Wellenlänge der UV-spektroskopischen Messung sind in Tabelle 1 zusammengestellt. Die Ergebnisse sind in Tabelle 2 zusammengestellt.

[1] = active alone in dist. water without polymer (not according to the invention), 24 h at room temperature

Structure (SMILES) | Löslichkeit Ohne Polymer [1] | also measured
NC(=O)N1c2ccccc2C=Cc2ccccc21 [Carbamazepin] | 140 mg/L | 
COC(=O)N(OC)c1ccccc1COc1ccn(-c2ccc(Cl)cc2)n1 [Pyraclostrobin] | 22,5 mg/l | 
N#Cc1nn(-c2c(Cl)cc(C(F)(F)F)cc2Cl)c(N)c1[S+]([O-])C(F)(F)F (stereo not shown) [Fipronil] |  | solubility thermodynamic at 24 h (distilled water without polymer, active alone in dist. water without polymer (not according to the invention), 24 h at room temperature, read-out: Löslichkeit Ohne Polymer): 3 µg/mL (≈ 6.86 µM)
CN1C(C(=O)Nc2ccccn2)=C(O)c2ccccc2S1(=O)=O [Piroxicam] |  | solubility thermodynamic at 24 h (water): 21 µg/mL (≈ 63.4 µM)
